# Laboratory results: ChEMBL document CHEMBL4229478, “Synthesis, Characterization, and Biological Evaluation of a Porphyrin-Based Photosensitizer and Its Isomer for Effective Photodynamic Therapy against Breast Cancer” (J Med Chem, 2018)
# Active and inactive are the calls of the source. The calls are words filed in the database; no cut-off is given here.
# What was measured:
# [1] = tested on: 4T1; experiment: Antitumor activity against mouse 4T1 cells xenografted in BALB/c mouse assessed as inhibition of tumor weight at 1 to 4 mg/kg, iv pretreated for 24 hrs followed by 50 J/cm2 light irradiation and measured at day 22 post last dose; type: functional, organism-based
# [2] = tested on: MDA-MB-231; experiment: Induction of apoptosis in human MDA-MB-231 cells assessed as viable cells after 24 hrs upon light irradiation by Annexin-V FITC/propidium iodide staining based flow cytometric analysis (reference value: 93.27%); type: functional
# [3] = Dark toxicity against human MDA-MB-231 cells assessed as cell viability at 0.5 uM after 24 hrs by MTT assay; type: cell-based; conditions: mda-mb-231, 24 h
# [4] = tested on: MDA-MB-231; experiment: Induction of ROS generation in human MDA-MB-231 cells incubated with DCF-DA probe for 30 mins prior to ROS scavenger NAC addition 1 hr before 2 J/cm2 light irradiation and measured after 1 hr post irradiation by flow cytometric analysis; type: functional, cell-based
# [5] = Tmax in tumor of BALB/c mouse xenografted with mouse 4T1 cells at 10 mg/kg, iv measured after […] by fluorescence assay; type: ADME, organism-based, Neoplasm
# [6] = tested on: Mus musculus; experiment: Toxicity in BALB/c mouse xenografted with mouse 4T1 cells assessed as pathological changes in lung at 4 mg/kg, iv measured at day 22 post dose by hematoxylin and eosin staining based light microscopic analysis; type: organism-based; conditions: in vivo
# [7] = tested on: Mus musculus; experiment: Toxicity in BALB/c mouse xenografted with mouse 4T1 cells assessed as effect on body weight at 4 mg/kg, iv pre-tretaed for 24 hrs followed by 50 J/cm2 light irradiation and measured at day 22 post dose; type: organism-based; conditions: in vivo
# [8] = tested on: Mus musculus; experiment: Hepatotoxicity in BALB/c mouse xenografted with mouse 4T1 cells assessed as pathological changes in liver at 4 mg/kg, iv pre-tretaed for 24 hrs followed by 50 J/cm2 light irradiation and measured at day 22 post dose by hematoxylin and eosin staining based light microscopic analysis; type: toxicity, organism-based; conditions: in vivo
# [9] = Induction of apoptosis in human MDA-MB-231 cells assessed as viable cells after 24 hrs by Annexin-V FITC/propidium iodide staining based flow cytometric analysis (reference value: 93.27%); type: cell-based; conditions: read-out: Activity
# [10] = tested on: Mus musculus; experiment: Hepatotoxicity in BALB/c mouse xenografted with mouse 4T1 cells assessed as pathological changes in liver at 1 to 4 mg/kg, iv pre-tretaed for 24 hrs followed by 50 J/cm2 light irradiation and measured at day 22 post dose by hematoxylin and eosin staining based light microscopic analysis; type: toxicity, organism-based; conditions: in vivo
# [11] = tested on: HUVEC; experiment: Phototoxicity against HUVEC assessed as cell viability at 0.5 uM preincubated for 4 hrs followed by 0.5 to 2 J/cm2 light irradiation and measured after 24 hrs by MTT assay; type: cell-based; conditions: human
# [12] = Selectivity index, ratio of dark toxicity against human MCF7 at 0.5 uM cells to phototoxicity against human MCF7 cells at 0.5 uM; type: cell-based; conditions: read-out: Selectivity Index
# [13] = tested on: Mus musculus; experiment: Nephrotoxicity in BALB/c mouse xenografted with mouse 4T1 cells assessed as pathological changes in kidney at 1 to 4 mg/kg, iv pre-tretaed for 24 hrs followed by 50 J/cm2 light irradiation and measured at day 22 post dose by hematoxylin and eosin staining based light microscopic analysis; type: toxicity, organism-based; conditions: in vivo
# [14] = tested on: 4T1; experiment: Antitumor activity against mouse 4T1 cells xenografted in BALB/c mouse assessed as inhibition of tumor volume at 4 mg/kg, iv pretreated for 24 hrs followed by 50 J/cm2 light irradiation and measured at day 22 post dose relative to control; type: functional; conditions: 4T1, light or radiation study
# [15] = tested on: Mus musculus; experiment: Toxicity in BALB/c mouse xenografted with mouse 4T1 cells assessed as pathological changes in spleen at 1 to 4 mg/kg, iv pre-tretaed for 24 hrs followed by 50 J/cm2 light irradiation and measured at day 22 post dose by hematoxylin and eosin staining based light microscopic analysis; type: organism-based; conditions: in vivo
# [16] = tested on: Mus musculus; experiment: Toxicity in BALB/c mouse xenografted with mouse 4T1 cells assessed as pathological changes in lung at 1 to 4 mg/kg, iv pre-tretaed for 24 hrs followed by 50 J/cm2 light irradiation and measured at day 22 post dose by hematoxylin and eosin staining based light microscopic analysis; type: organism-based; conditions: in vivo
# [17] = tested on: Mus musculus; experiment: Toxicity in BALB/c mouse xenografted with mouse 4T1 cells assessed as pathological changes in spleen at 4 mg/kg, iv measured at day 22 post dose by hematoxylin and eosin staining based light microscopic analysis; type: organism-based; conditions: in vivo
# [18] = Selectivity index, ratio of dark toxicity against mouse 4T1 cells at 0.5 uM to phototoxicity against mouse 4T1 cells at 0.5 uM; type: cell-based; conditions: read-out: Selectivity Index
# [19] = Induction of singlet oxygen generation in cell free condition upon 635 nm semiconductor laser light irradiation by singlet oxygen sensor green dye based fluorescence spectrophotometeric analysis; type: functional
# [20] = tested on: 4T1; experiment: Phototoxicity against mouse 4T1 cells assessed as cell viability at 0.5 uM preincubated for 4 hrs followed by 1 J/cm2 light irradiation and measured after 24 hrs by MTT assay relative to control; type: functional; conditions: 4T1, light or radiation study, read-out: Activity
# [21] = Drug uptake in spleen of BALB/c mouse xenografted with mouse 4T1 cells at 10 mg/kg, iv measured at 12 hrs post injection by IVIS spectrum imaging; type: ADME, organism-based; conditions: in vivo
# [22] = tested on: 4T1; experiment: Induction of apoptosis in mouse 4T1 cells xenografted in BALB/c mouse at 4 mg/kg, iv after 24 hrs by TUNEL assay; type: functional, organism-based
# [23] = tested on: MDA-MB-231; experiment: Phototoxicity against human MDA-MB-231 cells assessed as cell viability at 0.5 uM preincubated for 4 hrs followed by 0.5 to 2 J/cm2 light irradiation and measured after 24 hrs by MTT assay; type: functional, cell-based
# [24] = Drug uptake in tumor of BALB/c mouse xenografted with mouse 4T1 cells at 10 mg/kg, iv measured at 12 hrs post injection by IVIS spectrum imaging; type: ADME, organism-based, Neoplasm; conditions: in vivo
# [25] = tested on: MDA-MB-231; experiment: Induction of apoptosis in human MDA-MB-231 cells assessed as late apoptotic cells after 24 hrs by Annexin-V FITC/propidium iodide staining based flow cytometric analysis (reference value: 1.28%); type: cell-based; conditions: mda-mb-231, 24 h
# [26] = Drug uptake in lung of BALB/c mouse xenografted with mouse 4T1 cells at 10 mg/kg, iv measured at 12 hrs post injection by IVIS spectrum imaging; type: ADME, organism-based; conditions: in vivo
# [27] = tested on: Mus musculus; experiment: Toxicity in BALB/c mouse xenografted with mouse 4T1 cells assessed as effect on body weight at 2 mg/kg, iv pre-tretaed for 24 hrs followed by 50 J/cm2 light irradiation and measured at day 22 post dose; type: organism-based; conditions: in vivo
# [28] = tested on: MDA-MB-231; experiment: Phototoxicity against human MDA-MB-231 cells assessed as cell viability incubated with ROS scavenger NAC 1 hr before 2 J/cm2 light irradiation by MTT assay relative to control; type: functional
# [29] = Drug uptake in heart of BALB/c mouse xenografted with mouse 4T1 cells at 10 mg/kg, iv measured at 12 hrs post injection by IVIS spectrum imaging; type: ADME, organism-based; conditions: in vivo
# [30] = Drug uptake in human MDA-MB-231 cells at 5 uM after 4 hrs by fluorescence microscopic analysis; type: ADME, cell-based; conditions: mda-mb-231, 4 h
# [31] = tested on: MDA-MB-231; experiment: Induction of apoptosis in human MDA-MB-231 cells assessed as late apoptotic cells after 24 hrs upon light irradiation by Annexin-V FITC/propidium iodide staining based flow cytometric analysis (reference value: 1.28%); type: functional
# [32] = tested on: 4T1; experiment: Induction of apoptosis in mouse 4T1 cells xenografted in BALB/c mouse at 4 mg/kg, iv pretreated for 24 hrs followed by 50 J/cm2 light irradiation by TUNEL assay; type: functional, organism-based
Tmax [5] [h],Structure (SMILES),inhibition [1],Activity [2] [%],Activity [3],Activity [4],Activity [6],Activity [7],Activity [8],viability at 24 h [9] [%],Activity [10],Activity [11],selectivity ratio at 0.5 µM [12],Activity [13],inhibition in vivo at 4 mg/kg [14] [%],Activity [15],Activity [16],Activity [17],selectivity ratio at 0.5 µM [18],Activity [19],viability at 0.5 µM [20] [%],other results
12,C=CC1=C(C)c2cc3[nH]c(cc4nc(cc5[nH]c(cc1n2)c(C)c5CCC(=O)[O-])C(CCC(=O)[O-])=C4C)c(C)c3C(C)OCCCCCC.[Na+].[Na+] (centres undefined),Active,41.63,Non-Toxic,inactive,Non-Toxic,Non-Toxic,Non-Toxic,92.8,Non-Toxic,Non-Toxic,24.2,Non-Toxic,45.4,Non-Toxic,Non-Toxic,Non-Toxic,21.7,Dose-dependent effect,76.1,Drug uptake [21]: Not Active; Activity [22]: inactive; Activity [23]: Active; Drug uptake [24]: Active; Activity [25]: 2.73%; Drug uptake [26]: Not Active; Activity [27]: Non-Toxic; Activity [28]: >80%; Drug uptake [29]: Not Active; Drug uptake [30]: Active; Activity [31]: 40.09%; Activity [32]: Active
12,C=Cc1c(C)c2cc3nc(cc4[nH]c(cc5nc(cc1[nH]2)C(C)=C5C(C)OCCCCCC)c(C)c4CCC(=O)[O-])C(CCC(=O)[O-])=C3C.[Na+].[Na+] (centres undefined),Active,32.52,Non-Toxic,inactive,Non-Toxic,Non-Toxic,Non-Toxic,93.4,Non-Toxic,Non-Toxic,90.8,Non-Toxic,65.4,Non-Toxic,Non-Toxic,Non-Toxic,68.5,Dose-dependent effect,61.7,Drug uptake [21]: Not Active; Activity [22]: inactive; Activity [23]: Active; Drug uptake [24]: Active; Activity [25]: 2.34%; Drug uptake [26]: Not Active; Activity [27]: Non-Toxic; Activity [28]: >80%; Drug uptake [29]: Not Active; Drug uptake [30]: Active; Activity [31]: 53.54%; Activity [32]: Active
